Values joined by “and” are separate entries in the source; they are usually repeats but may differ in a detail not shown here. Equal values may be shown once.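 Tested at 5 concentrations; 48 h exposure; 96-well plates; endpoints linearly interpolated, else capped at highest concentration. GI50 marks 50% less growth. TGI denotes the concentration required for complete inhibition of growth.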
What was measured:
Assay in all cases: DTP human tumour cell line panel, 48 h
CAKI-1 renal = test system: CAKI-1 renal
OVCAR-5 ovarian = test system: OVCAR-5 ovarian
M14 melanoma = test system: M14 melanoma
UO-31 renal = test system: UO-31 renal
EKVX NSCLC = test system: EKVX NSCLC
NCI-H522 lung = test system: NCI-H522 lung
MCF7 breast = test system: MCF7 breast
SF-295 CNS = test system: SF-295 CNS
SK-OV-3 ovarian = test system: SK-OV-3 ovarian
HL-60(TB) leukemia = test system: HL-60(TB) leukemia

CC(=O)OCc1cc[c]([Hg][Cl])o1
GI50 (CAKI-1 renal): 10.4 µM | TGI (CAKI-1 renal): 23.5 µM | GI50 (OVCAR-5 ovarian): 11.8 µM | TGI (OVCAR-5 ovarian): 30.2 µM | GI50 (M14 melanoma): 3.11 µM | TGI (M14 melanoma): 13 µM | GI50 (UO-31 renal): 1.82 µM | TGI (UO-31 renal): 3.45 µM | GI50 (EKVX NSCLC): 12.4 µM | TGI (EKVX NSCLC): 28.2 µM | GI50 (NCI-H522 lung): 0.709 µM | TGI (NCI-H522 lung): 2.45 µM | GI50 (MCF7 breast): 0.994 µM | TGI (MCF7 breast): 18.3 µM | GI50 (SF-295 CNS): 14.3 µM | TGI (SF-295 CNS): 28.8 µM | GI50 (SK-OV-3 ovarian): 22.5 µM | TGI (SK-OV-3 ovarian): 53.6 µM | GI50 (HL-60(TB) leukemia): 2.46 µM | TGI (HL-60(TB) leukemia): 6.28 µM

Cn1cc(-c2[nH]c3cc(NC(=O)[C@H](N)C4CCCCC4)cc4c3c2C=NNC4=O)cn1
GI50 (CAKI-1 renal): 1.8 µM and 0.705 µM | TGI (CAKI-1 renal): 10.5 µM and > 7.91 µM | GI50 (OVCAR-5 ovarian): 1.28 µM and 0.644 µM | TGI (OVCAR-5 ovarian): 15.8 µM and > 10 µM | GI50 (M14 melanoma): 0.163 µM and 0.234 µM | TGI (M14 melanoma): 0.493 µM and > 4.31 µM | GI50 (UO-31 renal): 2.54 µM and 2.35 µM | TGI (UO-31 renal): 9.07 µM and > 10 µM | GI50 (EKVX NSCLC): 6.83 µM and 5.99 µM | TGI (EKVX NSCLC): 21.8 µM and > 10 µM | GI50 (NCI-H522 lung): 0.352 µM and 0.222 µM | TGI (NCI-H522 lung): 1.96 µM and 2.77 µM | GI50 (MCF7 breast): 0.211 µM and 0.209 µM | TGI (MCF7 breast): 15.8 µM and > 10 µM | GI50 (SF-295 CNS): 0.273 µM and 0.318 µM | GI50 (SK-OV-3 ovarian): 0.302 µM and 0.309 µM | TGI (SK-OV-3 ovarian): 11.4 µM and > 10 µM | GI50 (HL-60(TB) leukemia): 0.292 µM and 0.296 µM | TGI (HL-60(TB) leukemia): 0.775 µM and > 4.21 µM

CS(=O)(=O)Nc1cc(-c2ccc3ncnc(Nc4ccc(OCc5ccccn5)c(Cl)c4)c3c2)cnc1Cl
GI50 (CAKI-1 renal): 1.09 µM | TGI (CAKI-1 renal): 3.66 µM | GI50 (OVCAR-5 ovarian): 0.325 µM | TGI (OVCAR-5 ovarian): 4.58 µM | GI50 (M14 melanoma): 0.486 µM | GI50 (UO-31 renal): 0.337 µM | TGI (UO-31 renal): 3.86 µM | GI50 (EKVX NSCLC): 0.313 µM | TGI (EKVX NSCLC): 3.46 µM | GI50 (NCI-H522 lung): 0.131 µM | TGI (NCI-H522 lung): 2.35 µM | GI50 (MCF7 breast): 0.185 µM | TGI (MCF7 breast): > 100 µM | GI50 (SF-295 CNS): 0.526 µM | TGI (SF-295 CNS): 4.75 µM | GI50 (SK-OV-3 ovarian): 0.21 µM | TGI (SK-OV-3 ovarian): 1.16 µM | GI50 (HL-60(TB) leukemia): 0.23 µM | TGI (HL-60(TB) leukemia): 2.72 µM

CC(C)Cc1cc(-c2cccn2C)c(C#N)c(=O)[nH]1
GI50 (CAKI-1 renal): > 100 µM | TGI (CAKI-1 renal): > 100 µM | GI50 (OVCAR-5 ovarian): > 100 µM | TGI (OVCAR-5 ovarian): > 100 µM | GI50 (UO-31 renal): > 100 µM | TGI (UO-31 renal): > 100 µM | GI50 (EKVX NSCLC): > 100 µM | TGI (EKVX NSCLC): > 100 µM | GI50 (NCI-H522 lung): > 100 µM | TGI (NCI-H522 lung): > 100 µM | GI50 (MCF7 breast): > 100 µM | TGI (MCF7 breast): > 100 µM | GI50 (SF-295 CNS): > 100 µM | TGI (SF-295 CNS): > 100 µM | GI50 (SK-OV-3 ovarian): > 100 µM | TGI (SK-OV-3 ovarian): > 100 µM | GI50 (HL-60(TB) leukemia): 45.8 µM | TGI (HL-60(TB) leukemia): > 100 µM

c1ccc2cc(Cn3c(-c4cccc5ccccc45)[n+](Cc4ccc5ccccc5c4)c4c5ccccc5c5ccccc5c43)ccc2c1
GI50 (OVCAR-5 ovarian): 0.378 µM | TGI (OVCAR-5 ovarian): 1.68 µM | GI50 (EKVX NSCLC): 0.268 µM | TGI (EKVX NSCLC): 1.66 µM | GI50 (MCF7 breast): 0.244 µM | TGI (MCF7 breast): 1.2 µM | GI50 (SF-295 CNS): 0.203 µM | TGI (SF-295 CNS): 1.05 µM | GI50 (SK-OV-3 ovarian): 0.322 µM | TGI (SK-OV-3 ovarian): 1.62 µM | GI50 (HL-60(TB) leukemia): 0.142 µM | TGI (HL-60(TB) leukemia): 0.585 µM

S=C1NC(c2ccccc2)NC(c2ccccc2)S1 (configuration not stated)
TGI (CAKI-1 renal): > 100 µM | TGI (OVCAR-5 ovarian): > 100 µM | TGI (M14 melanoma): > 100 µM | TGI (UO-31 renal): > 100 µM | TGI (EKVX NSCLC): > 100 µM | TGI (NCI-H522 lung): > 100 µM | TGI (MCF7 breast): > 100 µM | TGI (SF-295 CNS): > 100 µM | TGI (SK-OV-3 ovarian): > 100 µM | TGI (HL-60(TB) leukemia): > 100 µM

OC(CBr)C(O)C(O)C(O)CBr (configuration not stated)
GI50 (CAKI-1 renal): 9.66 µM and 44.7 µM | TGI (CAKI-1 renal): > 100 µM | TGI (OVCAR-5 ovarian): > 100 µM | TGI (M14 melanoma): > 100 µM | GI50 (UO-31 renal): > 100 µM | TGI (UO-31 renal): > 100 µM | TGI (EKVX NSCLC): > 100 µM | TGI (NCI-H522 lung): > 100 µM | GI50 (MCF7 breast): 13.7 µM and 40.1 µM | TGI (MCF7 breast): > 100 µM | GI50 (SF-295 CNS): 23.2 µM and > 72.9 µM | TGI (SF-295 CNS): > 100 µM | TGI (SK-OV-3 ovarian): > 100 µM | TGI (HL-60(TB) leukemia): > 67.5 µM

C=C1CC2(CC(c3ccccc3C)OC(c3ccccc3C)C2)OC1=O (configuration not stated)
TGI (CAKI-1 renal): 4.26 µM | TGI (OVCAR-5 ovarian): 26.5 µM | TGI (M14 melanoma): 3.02 µM | TGI (UO-31 renal): 11.3 µM | TGI (EKVX NSCLC): 30.1 µM | TGI (NCI-H522 lung): 3.23 µM | TGI (MCF7 breast): 3.87 µM | TGI (SF-295 CNS): 29.4 µM | TGI (SK-OV-3 ovarian): 24.2 µM | TGI (HL-60(TB) leukemia): 11.6 µM
